Reference: the supplement of paper PMC10307832

Assays:
Assay in all cases: relative viability (nuclei count vs DMSO), 5 days (fraction); higher = more cells survive
[1] = tested on: 201T
In short: (§1)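 Cells from lung cancer lines were seeded into 1536-well plates and, one day later, dosed by pin tool. Treatments were either a single drug or a fixed dose of an anchor drug with five library-drug doses (not always all listed) in √10 steps. After 5 days, nuclei were stained in a one-step fixation (final 0.05% Triton X-100, 1% formaldehyde, 1 ug/ml Hoechst) and counted on 4× images, and relative viability is the treated-to-vehicle nuclei ratio, as the median of duplicate plates.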

[2] = tested on: NCI-H647
In short: as §1

[3] = tested on: EMC-BAC-2
In short: as §1

[4] = tested on: NCI-H3122
In short: as §1

[5] = tested on: NCI-H2009
In short: as §1

[6] = tested on: H3255
In short: as §1

[7] = tested on: NCI-H2126
In short: as §1

[8] = tested on: NCI-H2170
In short: as §1

[9] = tested on: SK-MES-1
In short: as §1

[10] = tested on: LK-2
In short: as §1

[11] = tested on: NCI-H596
In short: as §1

[12] = tested on: NCI-H2087
In short: as §1

[13] = tested on: PC-14
In short: as §1

[14] = tested on: NCI-H1734
In short: as §1

[15] = tested on: NCI-H322M
In short: as §1

[16] = tested on: NCI-H441
In short: as §1

[17] = tested on: NCI-H1755
In short: as §1

[18] = tested on: ChaGo-K-1
In short: as §1

[19] = tested on: NCI-H1651
In short: as §1

[20] = tested on: CAL-12T
In short: as §1

[21] = tested on: ABC-1
In short: as §1

[22] = tested on: LXF-289
In short: as §1

[23] = tested on: HOP-62
In short: as §1

For `O=c1[nH]c2ccccc2n1C1CCN(CCCC(c2ccc(F)cc2)c2ccc(F)cc2)CC1` [Pimozide] + C[C@@H](Oc1cc(-c2cnn(C3CCNCC3)c2)cnc1N)c1c(Cl)ccc(F)c1Cl [Crizotinib] (partner 1 µM), the relative viability ([1]; first compound 0.08 µM) was 0.995, the relative viability ([1]; first compound 0.253 µM) was 1 and the relative viability ([1]; first compound 0.8 µM) was 1.03. The relative viability ([1]; first compound 2.53 µM) was 1.05, the relative viability ([1]; first compound 8 µM) was 0.964 and the relative viability ([2]; first compound 0.08 µM) was 1.03. The relative viability ([2]; first compound 0.253 µM) was 1.04, the relative viability ([2]; first compound 0.8 µM) was 0.988 and the relative viability ([2]; first compound 2.53 µM) was 0.919. For the same compound, the relative viability ([2]; first compound 8 µM) was 0.544, the relative viability ([3]; first compound 0.08 µM) was 0.752 and the relative viability ([3]; first compound 0.253 µM) was 0.79. It also gave a relative viability ([3]; first compound 0.8 µM) of 0.691, a relative viability ([3]; first compound 2.53 µM) of 0.616 and a relative viability ([3]; first compound 8 µM) of 0.691. It also gave a relative viability ([4]; first compound 0.08 µM) of 0.27, a relative viability ([4]; first compound 0.253 µM) of 0.28 and a relative viability ([4]; first compound 0.8 µM) of 0.275. For the same compound, the relative viability ([4]; first compound 2.53 µM) was 0.301, the relative viability ([4]; first compound 8 µM) was 0.279 and the relative viability ([5]; first compound 0.08 µM) was 1.02. It also gave a relative viability ([5]; first compound 0.253 µM) of 0.995, a relative viability ([5]; first compound 0.8 µM) of 1.09 and a relative viability ([5]; first compound 2.53 µM) of 1.01. For the same compound, the relative viability ([5]; first compound 8 µM) was 0.889, the relative viability ([6]; first compound 0.253 µM) was 0.801 and the relative viability ([6]; first compound 0.8 µM) was 0.764. It also gave a relative viability ([6]; first compound 2.53 µM) of 0.983, a relative viability ([6]; first compound 8 µM) of 0.875 and a relative viability ([7]; first compound 0.08 µM) of 1.06. The relative viability ([7]; first compound 0.253 µM) was 0.976, the relative viability ([7]; first compound 0.8 µM) was 0.976 and the relative viability ([7]; first compound 2.53 µM) was 1.02. For the same compound, the relative viability ([7]; first compound 8 µM) was 1, the relative viability ([8]; first compound 0.08 µM) was 1.03 and the relative viability ([8]; first compound 0.253 µM) was 1.14. The relative viability ([8]; first compound 0.8 µM) was 1.06, the relative viability ([8]; first compound 2.53 µM) was 1.22 and the relative viability ([8]; first compound 8 µM) was 1.07. The relative viability ([9]; first compound 0.08 µM) was 0.882, the relative viability ([9]; first compound 0.253 µM) was 0.928 and the relative viability ([9]; first compound 0.8 µM) was 0.957. It also gave a relative viability ([9]; first compound 2.53 µM) of 1.01, a relative viability ([9]; first compound 8 µM) of 0.901 and a relative viability ([10]; first compound 0.08 µM) of 0.225. The relative viability ([10]; first compound 0.253 µM) was 0.224, the relative viability ([10]; first compound 0.8 µM) was 0.243 and the relative viability ([10]; first compound 2.53 µM) was 0.225. It also gave a relative viability ([10]; first compound 8 µM) of 0.234, a relative viability ([11]; first compound 0.08 µM) of 0.943 and a relative viability ([11]; first compound 0.253 µM) of 1.05. The relative viability ([11]; first compound 0.8 µM) was 0.928, the relative viability ([11]; first compound 2.53 µM) was 0.911 and the relative viability ([11]; first compound 8 µM) was 0.831. It also gave a relative viability ([12]; first compound 0.08 µM) of 0.856, a relative viability ([12]; first compound 0.253 µM) of 0.721 and a relative viability ([12]; first compound 0.8 µM) of 0.604. It also gave a relative viability ([12]; first compound 2.53 µM) of 0.826, a relative viability ([12]; first compound 8 µM) of 0.889 and a relative viability ([13]; first compound 0.253 µM) of 0.84. It also gave a relative viability ([13]; first compound 0.8 µM) of 0.943, a relative viability ([13]; first compound 2.53 µM) of 0.934 and a relative viability ([13]; first compound 8 µM) of 0.978. For the same compound, the relative viability ([14]; first compound 0.08 µM) was 0.646, the relative viability ([14]; first compound 0.253 µM) was 0.633 and the relative viability ([14]; first compound 0.8 µM) was 0.716. The relative viability ([14]; first compound 2.53 µM) was 0.609, the relative viability ([14]; first compound 8 µM) was 0.722 and the relative viability ([15]; first compound 0.253 µM) was 0.805. The relative viability ([15]; first compound 0.8 µM) was 0.846, the relative viability ([15]; first compound 2.53 µM) was 0.832 and the relative viability ([15]; first compound 8 µM) was 0.943. For the same compound, the relative viability ([16]; first compound 0.08 µM) was 0.608, the relative viability ([16]; first compound 0.253 µM) was 0.646 and the relative viability ([16]; first compound 0.8 µM) was 0.652. For the same compound, the relative viability ([16]; first compound 2.53 µM) was 0.568, the relative viability ([16]; first compound 8 µM) was 0.693 and the relative viability ([17]; first compound 0.08 µM) was 0.881. The relative viability ([17]; first compound 0.253 µM) was 0.845, the relative viability ([17]; first compound 0.8 µM) was 0.794 and the relative viability ([17]; first compound 2.53 µM) was 0.792. It also gave a relative viability ([17]; first compound 8 µM) of 0.697, a relative viability ([18]; first compound 0.08 µM) of 1.18 and a relative viability ([18]; first compound 0.253 µM) of 1.04. The relative viability ([18]; first compound 0.8 µM) was 1.15, the relative viability ([18]; first compound 2.53 µM) was 1.02 and the relative viability ([18]; first compound 8 µM) was 0.944. The relative viability ([19]; first compound 0.08 µM) was 0.801, the relative viability ([19]; first compound 0.8 µM) was 0.818 and the relative viability ([19]; first compound 2.53 µM) was 0.764. For the same compound, the relative viability ([19]; first compound 8 µM) was 0.933, the relative viability ([20]; first compound 0.08 µM) was 0.711 and the relative viability ([20]; first compound 0.253 µM) was 0.644. The relative viability ([20]; first compound 0.8 µM) was 0.557, the relative viability ([20]; first compound 2.53 µM) was 0.469 and the relative viability ([20]; first compound 8 µM) was 0.473. The relative viability ([21]; first compound 0.08 µM) was 1.03, the relative viability ([21]; first compound 0.253 µM) was 0.604 and the relative viability ([21]; first compound 0.8 µM) was 0.783. The relative viability ([21]; first compound 2.53 µM) was 0.755, the relative viability ([21]; first compound 8 µM) was 0.606 and the relative viability ([22]; first compound 0.08 µM) was 0.791. The relative viability ([22]; first compound 0.253 µM) was 0.775, the relative viability ([22]; first compound 0.8 µM) was 0.79 and the relative viability ([22]; first compound 2.53 µM) was 0.774. The relative viability ([22]; first compound 8 µM) was 0.709, the relative viability ([23]; first compound 0.08 µM) was 1.03 and the relative viability ([23]; first compound 0.253 µM) was 0.859. For the same compound, the relative viability ([23]; first compound 2.53 µM) was 0.819 and the relative viability ([23]; first compound 8 µM) was 0.991.
